Measured values taken from patent publication US20060116368A1, “4-Piperidinecarboxamide modulators of vanilloid VR1 receptor” (priority 2004, published 2006).

Molecular target: T1, Human Vanilloid Receptor 1 (Homo sapiens, UniProt Q8NER1)
T1 construct: expressed in transfected cells; host or cells: HEK 293
Experiment: Human VR1 functional assay using FLIPR, Protocol 1
Assay type: cell-based
Details: for inhibition at 9 µM: HEK293, 9 uM, inhibition of capsaicin (EC80)-induced calcium response, HEK 293 cells transfected with hVR1, read-out: h % I (9 uM); for IC50: decreased capsaicin (EC80)-induced calcium response, HEK 293 hVR1, read-out: h IC50; for Emax at 12.2 µM: HEK293, 12.2 uM, test compound-induced calcium response (agonist mode), HEK 293 hVR1, read-out: % maximal reponse to capsaicin (12.2 uM); for EC50: test compound-induced calcium response at the 5-minute time point, HEK 293 hVR1, read-out: h EC50
Experimental: The functional activity of the test compounds was determined by measuring changes in intracellular calcium concentration using FLIPR™ Calcium-3 Assay Kit and FLIPR™ technology.
HEK 293 cells transfected with Human Vanilloid Receptor 1 were maintained at 37° C. and 5% CO2 in: Dulbecco's Modification of Eagle's Medium (high glucose, L-glutamine, pyridoxine HCl, No sodium pyruvate), 10% FBS, 1× Penicillin-Streptomycin-Amphotericin B, 200 ug/mL zeocin. Approximately 24 hours prior to assay, 30,000 cells/well were plated onto a 384-well black clear bottom poly-D-lysine-coated assay plate with a well volume of 25 µL using Titertek Multidrop.
On the day of the assay, the medium was dumped and 50 μL 1× dye were loaded using Multidrop. Plates were incubated with dye at 37° C. for 30 minutes followed by 30 minutes incubation at room temperature. Then the plates were assayed by FLIPR™ with 2 additions: 12.5 μL test compound with 5 minutes data acquisition followed by 12.5 μL capsaicin at the EC80 concentration.
The EC50 values of test compounds were calculated based on a test compound-induced calcium response at the 5-minute time point. The IC50 values of compounds were calculated based on a decreased capsaicin-induced calcium response in the presence of test compound.

T1 sequence (Q8NER1 whole entry): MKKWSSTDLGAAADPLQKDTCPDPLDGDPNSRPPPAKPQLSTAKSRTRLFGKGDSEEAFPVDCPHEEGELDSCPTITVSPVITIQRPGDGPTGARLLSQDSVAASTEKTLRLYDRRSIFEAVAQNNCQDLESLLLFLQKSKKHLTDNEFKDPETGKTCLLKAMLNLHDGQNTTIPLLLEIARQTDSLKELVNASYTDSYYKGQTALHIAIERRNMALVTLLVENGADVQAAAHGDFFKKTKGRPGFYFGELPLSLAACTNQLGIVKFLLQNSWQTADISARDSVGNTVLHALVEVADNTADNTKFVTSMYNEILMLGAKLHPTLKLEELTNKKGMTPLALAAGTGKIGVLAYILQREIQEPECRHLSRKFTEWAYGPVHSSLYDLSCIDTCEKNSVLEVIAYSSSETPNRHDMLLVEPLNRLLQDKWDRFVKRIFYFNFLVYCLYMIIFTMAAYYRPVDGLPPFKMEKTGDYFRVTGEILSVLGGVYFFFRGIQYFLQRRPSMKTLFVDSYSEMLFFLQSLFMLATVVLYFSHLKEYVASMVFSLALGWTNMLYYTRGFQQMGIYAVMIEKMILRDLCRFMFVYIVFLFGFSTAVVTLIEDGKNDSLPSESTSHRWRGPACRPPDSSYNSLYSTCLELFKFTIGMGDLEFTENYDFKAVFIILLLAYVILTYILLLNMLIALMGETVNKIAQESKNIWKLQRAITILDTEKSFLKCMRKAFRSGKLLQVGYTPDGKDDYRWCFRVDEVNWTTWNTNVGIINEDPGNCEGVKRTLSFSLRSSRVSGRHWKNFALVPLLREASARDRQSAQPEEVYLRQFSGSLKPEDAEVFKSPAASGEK

Compound	inhibition at 9 µM [%]	IC50 [nM]	Emax at 12.2 µM [%]	EC50 [nM]
O=C(Nc1cnc2ccccc2c1)C1CCN(c2ccc(-c3ccccc3)cc2)CC1 [Example 1, 1-Biphenyl-4-yl-piperidine-4-carboxylic acid quinolin-3-ylamide]	7			
O=C(Nc1cnc2ccccc2c1)C1CCN(c2cccc(C(F)(F)F)c2)CC1 [Example 2, 1-(3-Trifluoromethyl-phenyl)-piperidine-4-carboxylic acid quinolin-3-ylamide]	109	600		
O=C(Nc1cnc2ccccc2c1)C1CCN(c2cccc(-c3ccccc3)c2)CC1 [Example 3, 1-Biphenyl-3-yl-piperidine-4-carboxylic acid quinolin-3-ylamide]	44	15500		
O=C(Nc1cnc2ccccc2c1)C1CCN(c2ccc(C(F)(F)F)cc2)CC1 [Example 4, 1-(4-Trifluoromethyl-phenyl)-piperidine-4-carboxylic acid quinolin-3-ylamide]	7.5			
Cc1cccc(N2CCC(C(=O)Nc3cnc4ccccc4c3)CC2)c1C [Example 5, 1-(2,3-Dimethyl-phenyl)-piperidine-4-carboxylic acid quinolin-3-ylamide]	102	230		
CCn1cnc2c(NC(=O)C3CCN(c4cccc(C(F)(F)F)c4)CC3)ncnc21 [Example 7, 1-(3-Trifluoromethyl-phenyl)-piperidine-4-carboxylic acid (9-ethyl-9H-purin-6-yl)-amide]	5			
O=C(Nc1ncnc2sccc12)C1CCN(c2cccc(C(F)(F)F)c2)CC1 [Example 10, 1-(3-Trifluoromethyl-phenyl)-piperidine-4-carboxylic acid thieno[2,3-d]pyrimidin-4-ylamide]			81	860
O=C(Nc1cccc2cn[nH]c12)C1CCN(c2cccc(C(F)(F)F)c2)CC1 [Example 11, 1-(3-Trifluoromethyl-phenyl)-piperidine-4-carboxylic acid (1H-indazol-7-yl)-amide]	72	2840		
Cc1nsc2ccc(NC(=O)C3CCN(c4cccc(C(F)(F)F)c4)CC3)cc12 [Example 12, 1-(3-Trifluoromethyl-phenyl)-piperidine-4-carboxylic acid (3-methyl-benzo[d]isothiazol-5-yl)-amide]			74	860
CCOC(=O)c1[nH]c2ccccc2c1NC(=O)C1CCN(c2cccc(C(F)(F)F)c2)CC1 [Example 14, 3-{[1-(3-Trifluoromethyl-phenyl)-piperidine-4-carbonyl]-amino}-1H-indole-2-carboxylic acid ethyl ester]	4			
O=C(Nc1ccc2c(c1)OCO2)C1CCN(c2cccc(C(F)(F)F)c2)CC1 [Example 15, 1-(3-Trifluoromethyl-phenyl)-piperidine-4-carboxylic acid benzo[1,3]dioxol-5-ylamide]	61	4570		
O=C1Cc2cc(NC(=O)C3CCN(c4cccc(C(F)(F)F)c4)CC3)ccc2N1 [Example 17, 1-(3-Trifluoromethyl-phenyl)-piperidine-4-carboxylic acid (2-oxo-2,3-dihydro-1H-indol-5-yl)-amide]			49	470
O=C(Nc1ccc2c(c1)OCCO2)C1CCN(c2cccc(C(F)(F)F)c2)CC1 [Example 18, 1-(3-Trifluoromethyl-phenyl)-piperidine-4-carboxylic acid (2,3-dihydro-benzo[1,4]dioxin-6-yl)-amide]	12.5			
Cc1nc2cc(NC(=O)C3CCN(c4cccc(C(F)(F)F)c4)CC3)ccc2s1 [Example 19, 1-(3-Trifluoromethyl-phenyl)-piperidine-4-carboxylic acid (2-methyl-benzothiazol-5-yl)-amide]	7.5			
O=C(Nc1nsc2ccc([N+](=O)[O-])cc12)C1CCN(c2cccc(C(F)(F)F)c2)CC1 [Example 20, 1-(3-Trifluoromethyl-phenyl)-piperidine-4-carboxylic acid (5-nitro-benzo[d]isothiazol-3-yl)-amide]	2.5			
O=C(Nc1ccc2[nH]ccc2c1)C1CCN(c2cccc(C(F)(F)F)c2)CC1 [Example 22, 1-(3-Trifluoromethyl-phenyl)-piperidine-4-carboxylic acid (1H-indol-5-yl)-amide]	78	1070		

Compound	inhibition at 9 µM [%]	IC50 [nM]	Emax at 12.2 µM [%]	EC50 [nM]
O=C(Nc1ccc2cc[nH]c2c1)C1CCN(c2cccc(C(F)(F)F)c2)CC1 [Example 23, 1-(3-Trifluoromethyl-phenyl)-piperidine-4-carboxylic acid (1H-indol-6-yl)-amide]	19			
Cn1ncc2cc(NC(=O)C3CCN(c4cccc(C(F)(F)F)c4)CC3)ccc21 [Example 24, 1-(3-Trifluoromethyl-phenyl)-piperidine-4-carboxylic acid (1-methyl-1H-indazol-5-yl)-amide]			68.5	1500
COc1ccc(NC(=O)C2CCN(c3cccc(C(F)(F)F)c3)CC2)cn1 [Example 25, 1-(3-Trifluoromethyl-phenyl)-piperidine-4-carboxylic acid (6-methoxy-pyridin-3-yl)-amide]			74	850
O=C(Nc1ccc2nc(S)sc2c1)C1CCN(c2cccc(C(F)(F)F)c2)CC1 [Example 26, 1-(3-Trifluoromethyl-phenyl)-piperidine-4-carboxylic acid (2-mercapto-benzothiazol-6-yl)-amide]			35.5	2550
O=C(Nc1ccc(O)c2ncccc12)C1CCN(c2cccc(C(F)(F)F)c2)CC1 [Example 27, 1-(3-Trifluoromethyl-phenyl)-piperidine-4-carboxylic acid (8-hydroxy-quinolin-5-yl)-amide]	13			
O=C(Nc1ccc2c(c1)OCCCO2)C1CCN(c2cccc(C(F)(F)F)c2)CC1 [Example 28, 1-(3-Trifluoromethyl-phenyl)-piperidine-4-carboxylic acid (3,4-dihydro-2H-benzo[b][1,4]dioxepin-7-yl)-amide]	77	2180		
CC(=O)N1CCc2cc(NC(=O)C3CCN(c4cccc(C(F)(F)F)c4)CC3)ccc21 [Example 29, 1-(3-Trifluoromethyl-phenyl)-piperidine-4-carboxylic acid (1-acetyl-2,3-dihydro-1H-indol-5-yl)-amide]	13			
O=C(Nc1cccc2cc[nH]c12)C1CCN(c2cccc(C(F)(F)F)c2)CC1 [Example 30, 1-(3-Trifluoromethyl-phenyl)-piperidine-4-carboxylic acid (1H-indol-7-yl)-amide]			40	5310
O=C(Nc1ccc2c(=O)[nH][nH]c(=O)c2c1)C1CCN(c2cccc(C(F)(F)F)c2)CC1 [Example 31, 1-(3-Trifluoromethyl-phenyl)-piperidine-4-carboxylic acid (1,4-dioxo-1,2,3,4-tetrahydro-phthalazin-6-yl)-amide]	16			
O=C(Nc1ccc(Oc2ccccc2)nc1)C1CCN(c2cccc(C(F)(F)F)c2)CC1 [Example 32, 1-(3-Trifluoromethyl-phenyl)-piperidine-4-carboxylic acid (6-phenoxy-pyridin-3-yl)-amide]	13			
CN(C)c1nc(NC(=O)C2CCN(c3cccc(C(F)(F)F)c3)CC2)ncc1-c1ccccc1 [Example 35, 1-(3-Trifluoromethyl-phenyl)-piperidine-4-carboxylic acid (4-dimethylamino-5-phenyl-pyrimidin-2-yl)-amide]	14			
CCOC(=O)c1c(C)nn(-c2ccc(NC(=O)C3CCN(c4cccc(C(F)(F)F)c4)CC3)cn2)c1C [Example 36, 3,5-Dimethyl-1-(5-{[1-(3-trifluoromethyl-phenyl)-piperidine-4-carbonyl]-amino}-pyridin-2-yl)-1H-pyrazole-4-carboxylic acid ethyl ester]	14			
CC(=O)N1c2cc(NC(=O)C3CCN(c4cccc(C(F)(F)F)c4)CC3)ccc2CC1C (stereo not drawn) [Example 37, 1-(3-Trifluoromethyl-phenyl)-piperidine-4-carboxylic acid (1-acetyl-2-methyl-2,3-dihydro-1H-indol-6-yl)-amide]	46.5	2640		
O=C1Cc2ccc(NC(=O)C3CCN(c4cccc(C(F)(F)F)c4)CC3)cc2N1 [Example 38, 1-(3-Trifluoromethyl-phenyl)-piperidine-4-carboxylic acid (2-oxo-2,3-dihydro-1H-indol-6-yl)-amide]			62.8	320
O=C(Nc1ncnc2ccccc12)C1CCN(c2cccc(C(F)(F)F)c2)CC1 [Example 39, 1-(3-Trifluoromethyl-phenyl)-piperidine-4-carboxylic acid quinazolin-4-ylamide]	3.5			
Cc1nc2ccc(NC(=O)C3CCN(c4cccc(C(F)(F)F)c4)CC3)nc2nc1C [Example 40, 1-(3-Trifluoromethyl-phenyl)-piperidine-4-carboxylic acid (2,3-dimethyl-pyrido[2,3-b]pyrazin-6-yl)-amide]	11.5			
